Results from ChEMBL document CHEMBL3853355, “Six new compounds from Atractylodes lancea and their hepatoprotective activities” (2016).

Test system: HepG2
Experiment: Hepatoprotective activity against N-acetyl-p-aminophenol-induced cell injury in human HepG2 cells assessed as cell survival at 10 uM after 48 hrs by MTT assay (reference value: 39.87%)
Assay type: functional
Conditions: HepG2, 48 h, read-out: Survival

SMILES	viability at 10 µM [%]
COc1cc(C(=O)O)ccc1O[C@@H]1O[C@@H](C)[C@H](O)[C@@H](O[C@@H]2O[C@H](CO)[C@@H](O)[C@H](O)[C@H]2O)[C@H]1O	54.6
C/C(=C\Cc1cc(C(=O)O)cc2c1O[C@H](C(C)(C)O)[C@H]2O)CO	53.6
O=c1c(-c2ccc(O)cc2)coc2c([C@@H]3O[C@H](CO)[C@@H](O)[C@H](O)[C@H]3O)c(O)ccc12 [PUERARIN]	41.3
C[C@@H]1O[C@@H](Oc2ccc(C(=O)O)cc2)[C@H](O)[C@H](O[C@@H]2O[C@H](CO)[C@@H](O)[C@H](O)[C@H]2O)[C@H]1O	54.7
COc1cc(-c2coc3c([C@@H]4O[C@H](CO)[C@@H](O)[C@H](O)[C@H]4O)c(O)ccc3c2=O)ccc1O	45.2
COC(=O)c1cc(OC)c2c(c1-c1c(CO)cc(OC)c3c1OCO3)OCO2 [BICYCLOL]	52.9
